{"source": "patent US4853401A", "about": "“Spiro-hydantoins as aldose reductase inhibitors” (priority 1987, dated 1989)", "key": {"[1]": {"test_system": "accumulation of sorbitol in the crystalline lenses", "experiment": "Preventive effect of single dose: sorbitol in crystalline lenses", "type": "in vivo, Sprague Dawley rats", "conditions": "for Accumulation of sorbitol in crystalline lenses, treated: 10 mg/kg oral", "protocol": "(§1) 2.3. In vivo effects of a single dose of compound No. 2 (CP 3192 AR) on the variation in the proportion of plasma glucose and the accumulation of sorbitol in the crystalline lenses and sciatic nerves of diabetic rats.\n(§2) 2.3.1. Preventive effect. CP 3192 AR was administered simultaneously with the induction of diabetes. The experiment was performed on 33 male Sprague Dawley rats weighing about 200 g.\n(§3) At time 0 hours, 3 rats were sacrificed and used as non-diabetic controls. 30 fats fasted the previous day were made diabetic by an intraperitoneal injection of streptozotocin (75 mg/kg). A dose of 10 mg/kg of CP 3192 AR was simultaneously administered orally to 15 of the rats. The other 15 were given a placebo. 3 control rats and 3 rats treated with CP 3192 AR were sacrificed 2, 4, 8, 24 and 48 hours after induction of diabetes.\n(§4) An estimate was made of the effects of the product on the proportion of plasma glucose and the sorbitol content of the crystalline lenses and sciatic nerves."}, "[2]": {"test_system": "accumulation of sorbitol in the sciatic nerves", "experiment": "Inhibition of accumulation of sorbitol in sciatic nerves of diabetic rats", "type": "in vivo, Sprague Dawley rats", "conditions": "oral 25 mg/kg at 0, 7 and 24 h, sacrificed 27 h", "protocol": "2.1 Inhibition of accumulation of sorbitol in crystalline lenses and nerves of diabetic rats:\nThe effects of the products according to the invention on the proportion of plasma glucose and the accumulation of sorbitol in the crystalline lenses and sciatic nerves of rats made diabetic by streptozotocin were examined by the method of M. J. Peterson, et al (Metabolism, 28, 456-461 (1979)).\nFasted Sprague Dawley rats were made diabetic by intraperitoneal injection of streptozotocin (75 mg/kg). The product under test was orally administered at a dose of 25 mg/kg after 0, 7 and 24 hours. The rats were sacrificed 27 hours after induction of diabetes. The crystalline lenses and sciatic nerves were taken and preserved at -20° C. until analysed. The crystalline lenses and sciatic nerves were homogenized in water and the proteins were precipitated from ethanol. The precipitate was eliminated by centrifuging and the supernatant liquid was lyophylised. The sorbitol in the sample was determined by the method of B. Bjorkqvist (J. of Chromatograph, 218, 65-71 (1981)), adapted by A. Lenaers et al. (Arch. Intern. Physiol. Bioch., 91, B, 62-63 (1983)).\nThe sample was dissolved in pyridine containing galactitol as an internal standard. Derivatives were formed therefrom by phenylisocyanate during incubation for 1 hour at 60° C. The reaction was then stopped by adding methanol and the derivatives were separated and determined by HPLC.\nThe results are expressed as percentage inhibition of the accumulation of sorbitol, compared with the controls."}, "[3]": {"test_system": "accumulation of sorbitol in the sciatic nerves", "experiment": "Preventive effect of single dose: sorbitol in sciatic nerves", "type": "in vivo, Sprague Dawley rats", "conditions": "10 mg/kg oral", "protocol": "as §1, §2, §3, §4"}, "mice": {"test_system": "mice", "experiment": "Teratogenic effect on mice", "type": "in vivo", "conditions": "oral doses of 100 mg/kg and 1 000 mg/kg"}, "[4]": {"experiment": "Preventive effect of single dose: plasma glucose", "type": "in vivo, Sprague Dawley rats", "conditions": "for Plasma glucose, treated: 10 mg/kg oral", "protocol": "as §1, §2, §3, §4"}, "[5]": {"test_system": "accumulation of sorbitol in the crystalline lenses", "experiment": "Curative effect of single dose: sorbitol in crystalline lenses", "type": "in vivo, Sprague Dawley rats", "conditions": "for Accumulation of sorbitol in crystalline lenses, treated: 10 mg/kg oral", "protocol": "2.3.2. Curative effect: CP 3192 AR was administered 24 hours after induction of diabetes.\nAs before, the experiment was made on 33 male Sprague Dawley rats weighing about 200 g. The 33 rats, which had been fasted the previous day, were made diabetic by an intraperitoneal injection of streptozotocin (75 mg/kg).\n24 hours after induction of diabetes, 3 rats were sacrificed and used as diabetic controls. A dose of 10 mg/kg of CP 3192 AR was orally administered to 15 rats whereas the other 15 were given the excipient without an active product. 3 control rats and 3 rats treated with CP 3192 AR were sacrificed 2, 4, 8, 24 and 48 hours after administration of the product.\nEstimates were made of the effects of the product on the proportion of plasma glucose and the sorbitol content of the crystalline lenses and sciatic nerves of rats made diabetic by streptozotocin."}, "[6]": {"conditions": "single dose 10 mg/kg, lenses and sciatic nerves"}}}
{"compound": "CC(=O)OCN1C(=O)N(COC(C)=O)C2(C1=O)c1ccccc1-c1ccccc12", "note": "[Compound 2, bis-(1',3'-acetoxymethyl)-spiro-/fluorene-9,4'-imidazolidine/-2',5'-dione]", "values": [{"measurement": "Accumulation of sorbitol in crystalline lenses, treated", "setting": "[1]; 2 h", "value": "3 ± 0", "unit": "µg"}, {"measurement": "Accumulation of sorbitol in crystalline lenses, treated", "setting": "[1]; 4 h, p < 0.005", "value": "6.3 ± 0.6", "unit": "µg"}, {"measurement": "Accumulation of sorbitol in crystalline lenses, treated", "setting": "[1]; 8 h, p < 0.05", "value": "12.3 ± 4.0", "unit": "µg"}, {"measurement": "Accumulation of sorbitol in crystalline lenses, treated", "setting": "[1]; 24 h, p < 0.05", "value": "52 ± 10.1", "unit": "µg"}, {"measurement": "Accumulation of sorbitol in crystalline lenses, treated", "setting": "[1]; 48 h", "value": "92.7 ± 18.6", "unit": "µg"}, {"measurement": "duration of effect on sorbitol accumulation", "setting": "[1]; [6]", "value": "at least 48 hours"}, {"measurement": "onset of effect on sorbitol accumulation", "setting": "[1]; [6]", "value": "observed as soon as soribol began to accumulate"}, {"measurement": "Inhibition of accumulation of sorbitol in vivo, in sciatic nerves", "setting": "[2]", "value": 85, "unit": "%"}, {"measurement": "Accumulation of sorbitol in sciatic nerves, treated", "setting": "[3]; 2 h, p < 0.05", "value": "1.23 ± 0.2", "unit": "µg"}, {"measurement": "Accumulation of sorbitol in sciatic nerves, treated", "setting": "[3]; 4 h, p < 0.005", "value": "1.8 ± 0.2", "unit": "µg"}, {"measurement": "Accumulation of sorbitol in sciatic nerves, treated", "setting": "[3]; 8 h, p < 0.0005", "value": "1.8 ± 0.5", "unit": "µg"}, {"measurement": "Accumulation of sorbitol in sciatic nerves, treated", "setting": "[3]; 24 h, p < 0.05", "value": "4.0 ± 1.0", "unit": "µg"}, {"measurement": "Accumulation of sorbitol in sciatic nerves, treated", "setting": "[3]; 48 h, p < 0.05", "value": "4.6 ± 1.7", "unit": "µg"}, {"measurement": "teratogenic effect", "setting": "mice", "value": "does not have a mutagenic effect in the Ames test or teratogenic effect on mice"}, {"measurement": "Plasma glucose, treated", "setting": "[4]; 2 h", "value": "436 ± 45", "unit": "mg/100 ml"}, {"measurement": "Plasma glucose, treated", "setting": "[4]; 4 h", "value": "359 ± 45", "unit": "mg/100 ml"}, {"measurement": "Plasma glucose, treated", "setting": "[4]; 8 h", "value": "264 ± 73", "unit": "mg/100 ml"}, {"measurement": "Plasma glucose, treated", "setting": "[4]; 24 h", "value": "485 ± 35", "unit": "mg/100 ml"}, {"measurement": "Plasma glucose, treated", "setting": "[4]; 48 h", "value": "447 ± 34", "unit": "mg/100 ml"}, {"measurement": "effect on the proportion of plasma glucose", "setting": "[4]; single oral dose 10 mg/kg", "value": "no effect"}, {"measurement": "Accumulation of sorbitol in crystalline lenses, treated", "setting": "[5]; 2 h after administration", "value": "103 ± 27", "unit": "µg"}, {"measurement": "Accumulation of sorbitol in crystalline lenses, treated", "setting": "[5]; 4 h after administration", "value": "99 ± 5", "unit": "µg"}, {"measurement": "Accumulation of sorbitol in crystalline lenses, treated", "setting": "[5]; 8 h after administration", "value": "125 ± 8", "unit": "µg"}, {"measurement": "Accumulation of sorbitol in crystalline lenses, treated", "setting": "[5]; 24 h after administration, p <0.0005", "value": "73 ± 18", "unit": "µg"}, {"measurement": "Accumulation of sorbitol in crystalline lenses, treated", "setting": "[5]; 48 h after administration, p < 0.05", "value": "142 ± 47", "unit": "µg"}, {"measurement": "accumulation of sorbitol in crystalline lenses (in words)", "setting": "[5]; single dose 10 mg/kg", "value": "completely inhibits"}, {"measurement": "duration of effect", "setting": "[5]; [6]", "value": "≥ 48", "unit": "h"}, {"measurement": "mutagenic effect", "setting": "Ames test", "value": "does not have a mutagenic effect"}]}
